# Data reported in PMC4057607 (Journal of immunology (Baltimore, Md. : 1950), 2013).
# Target: soluble HLA-A*02:01 molecules (Homo sapiens, UniProt P04439, D140Y/D185E/D98H/E176V/E277Q/G131W/G231S/I119V/I121R/I166T/I218V/L300P/L318F/N151K/N90K/P208A/P217A/Q86G/Q94H/R138H/R169H/T345S)
# Experiment: Binding with soluble HLA-A*02:01 molecules
compound,measurement,value
CSCC[C@H](NC(=O)[C@@H](N)[C@@H](C)O)C(=O)N[C@@H](CC(C)C)C(=O)N[C@@H](CCC(=O)O)C(=O)N[C@@H](CC(=O)O)C(=O)N[C@@H](Cc1c[nH]cn1)C(=O)N[C@@H](CCC(=O)O)C(=O)N[C@@H](Cc1ccccc1)C(=O)N[C@H](C(=O)O)C(C)C [gB675–683],Kd,~95 nM
